The test system of series [1] is A549 (lung adenocarcinoma). Briefly: MTS cytotoxicity assay, 72 h, A549. Format: cell-based. Conditions: Homo sapiens, A549, 72 h. In outline:
(§1)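 IC50 values come from a tetrazolium (MTS) read-out at 490 nm taken after continuous 72 h exposure to a twofold dilution series from 50 down to 0.0975 μmol/L, with compound added one day after seeding.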

A further series concerns HCT 116. As to the kind of experiment: MTS cytotoxicity assay, 72 h, HCT 116. Format: cell-based. Conditions: Homo sapiens, HCT-116, 72 h. In short, it runs like this:
as §1
(In general: Formazan colour is commonly taken as a measure of viable cells.)

A further series deals with U2OS. Briefly: MTS cytotoxicity assay, 72 h, U2OS. Format: cell-based. Conditions: Homo sapiens.
Another series deals with CEM-DNR. Briefly: MTS cytotoxicity assay, 72 h, CEM-DNR. Format: cell-based. Conditions: Homo sapiens.
Series [2] relates to BJ human skin fibroblasts. As to the kind of experiment: MTS cytotoxicity assay, 72 h, BJ fibroblasts. Format: cell-based. Conditions: Homo sapiens, Skin fibroblast, normal fibroblasts. In outline: as §1
The next series is described as follows: Plasma stability. Format: in vitro ADME. To be noted: human plasma.
Series [3] can be described thus: Plasma protein binding, Rapid Equilibrium Dialysis. Format: in vitro ADME. To be noted: read-out: Plasma protein binding % Fraction bound (converted). The procedure:
(§2) Data from a plasma protein binding study can inform about distribution into tissues of the body and reduction in the amount of drug available to be metabolized or cleared from the body. The measurement of plasma protein binding was performed using a Rapid Equilibrium Dialysis device; 11a and 11b compounds reported a percent of fraction bound around 90%. For the microsomal stability assay, human liver microsomes and NADPH cofactor were used to assess phase I oxidation by cytochrome P450 and flavin monooxygenases. The intrinsic clearance calculated from the microsomal stability assay indicated the medium category for both derivatives (Table 3).
A general note: In equilibrium dialysis only unbound substance equilibrates across the membrane.

Series [4] is described as follows: Microsomal stability, human liver microsomes with NADPH. To be noted: for Category of Intrinsic clearence: calculated from microsomal stability, category per ref 39; for Microsomal stability % Compound remaining 15 min / Microsomal stability % Compound remaining 30 min / Microsomal stability % Compound remaining 60 min: human liver microsomes, NADPH. Format: in vitro ADME. The procedure:
as §2

For the compound `C=C(C)[C@@H]1CC[C@]2(C(=O)O)CC[C@]3(C)C(CCC4[C@@]5(C)C=C(c6ccco6)C(=O)C(C)(C)C5CC[C@]43C)C12` (stereo partly drawn) [Compound 11a, 2-(Furan-2-yl)-3-oxolupa-1,20(29)-dien-28-oic acid], the IC50 (usually the concentration that gives 50% inhibition) in series [1] (Table 1) was 12 µM; in series [1] (full Table S1), 12.1 µM; in the series on HCT 116 (Table 1) it was 11 µM; in the series on HCT 116 (full Table S1), 11.4 µM; with U2OS (Table 1) it was 21 µM; with U2OS (full Table S1), 20.9 µM. Also, the IC50 in the series with CEM-DNR (Table 1) is 15 µM; with CEM-DNR (full Table S1), 15.3 µM; in series [2] (Table 1), 39 µM; in series [2] (full Table S1), 39.1 µM. In the series “Plasma stability”, the “Plasma stability % Compound remaining 15 min” value came out at 103%. Also, the “Plasma stability % Compound remaining 30 min” value in the series “Plasma stability” is 100%. Besides, in the series “Plasma stability”, the “Plasma stability % Compound remaining 60 min” value is reported as 95%. Besides, the fraction unbound in series [3] was roughly 0.1. Moreover, the “Category of Intrinsic clearence” value in series [4] was “Medium”. Further, the “Microsomal stability % Compound remaining 15 min” value in series [4] amounted to 88%. The “Microsomal stability % Compound remaining 30 min” value in series [4] stood at 72%. For the same compound, the “Microsomal stability % Compound remaining 60 min” value in series [4] is listed as 52%.
In the case of `C=C(C)[C@@H]1CC[C@]2(C(=O)O)CC[C@]3(C)C(CCC4[C@@]5(C)C=C(c6ccoc6)C(=O)C(C)(C)C5CC[C@]43C)C12` (stereo partly drawn) [Compound 11b, 2-(Furan-3-yl)-3-oxolupa-1,20(29)-dien-28-oic acid], the IC50 in series [1] (Table 1) was 12 µM; in series [1] (full Table S1) it was 12.1 µM; in the series with HCT 116 (Table 1), 20 µM; in the series with HCT 116 (full Table S1), 19.9 µM; with U2OS (Table 1) it was 26 µM; in the series on U2OS (full Table S1) it was 26.3 µM. Besides, the IC50 in the series with CEM-DNR (Table 1) was determined as 22 µM; with CEM-DNR (full Table S1) it was 21.8 µM; in series [2] (Table 1) it was 37 µM; in series [2] (full Table S1) it was 36.6 µM. Besides, in “Plasma stability”, the “Plasma stability % Compound remaining 15 min” value turned out to be 103%. For the same compound, in the series “Plasma stability”, the “Plasma stability % Compound remaining 30 min” value came out at 104%. Moreover, the “Plasma stability % Compound remaining 60 min” value in “Plasma stability” amounted to 103%. In series [3], the fraction unbound is roughly 0.1. In addition, the “Category of Intrinsic clearence” value in series [4] is reported as “Medium”. Further, the “Microsomal stability % Compound remaining 15 min” value in series [4] was determined as 84%. For the same compound, the “Microsomal stability % Compound remaining 30 min” value in series [4] is 69%. Moreover, the “Microsomal stability % Compound remaining 60 min” value in series [4] was determined as 51%.

(Values after article PMC11923649, “Novel C-2 Aromatic Heterocycle-Substituted Triterpenoids Inhibit Hedgehog Signaling in GLI1 Overexpression Cancer Cells” (ACS Omega, 2025).)
